Laboratory results reported in patent US20050090517A1, “Pharmaceutical combinations of cox-2 inhibitors and opiates” (priority 2002, published 2005).
Read-outs that look alike come from different tables or passages of the source.

Experiments:
[1] = tested on: noxious ischaemia to the tail of Sprague-Dawley rats; assay: Nociception during noxious ischaemia of the rat tail (tourniquet, escape latency); assay type: in vivo; conditions: median (95% confidence interval), n=10, cut-off 30 min
Procedure: Sprague-Dawley rats (Rattus norvegicus) both genders weighing 250-450 g were used for nociceptive tests. The rats were housed individually at an ambient temperature of 21-23° C. on a 12-hour light; 12-hour dark cycle, and were allowed free access to standard rat chow and tap water. Groups of ten rats were used for each test. Rats were returned to stock, and in good health, after the tests.
Ischaemia was induced by applying an inflatable tourniquet to the base of the restrained rat's tail, as detailed previously (Gelgor et al., 1992). […] The time between application of the tourniquet and the escape response, that is the escape latency, is a measure of sensitivity to the noxious stimulus induced by ischaemia. To prevent tissue damage, the tourniquet was removed if the rat had not responded within 30 min.
(§1) The tail flick latency (mean of three measurements, 1 min apart) was measured and then the agent under test was administered. Thirty minutes later the tourniquet (or sham tourniquet) was applied and the escape latency measured. Immediately after release of the tourniquet, the tail flick latency was again measured, and the measurements were repeated after 30 and 60 min of reperfusion. Following inspection of the data at all three periods of reperfusion, the investigations elected to base their assessment of antihyperalgesic activity on data obtained immediately after release of the tourniquet.
Paracetamol, meloxicam and codeine phosphate were provided by the applicant. Codeine phosphate was dissolved in water. Meloxicam was dissolved in sunflower oil. Paracetamol was suspended in sunflower oil. All three agents were administered in boluses of 0.2 ml, and the paracetamol suspension was flushed with water. In control experiments, the appropriate vehicle (water, sunflower oil, or both) was administered.
Each agent was administered separately, at three doses, to determine the antinociceptve activity, if any, of each independently. Pairs of agents then were administered at three doses for each pair. Finally, the combination of the three agents was administered, at three doses. […]

[2] = tested on: reperfusion hyperalgesia of the tail of Sprague-Dawley rats; assay: Reperfusion hyperalgesia of the rat tail following transient ischaemia (tail flick latency, antihyperalgesic index); assay type: in vivo; conditions: for ED50: Rattus norvegicus, read-out: ED50 (dose at which reperfusion hyperalgesia is reduced by 50%), agent separately
Procedure: Sprague-Dawley rats (Rattus norvegicus) both genders weighing 250-450 g were used for nociceptive tests. The rats were housed individually at an ambient temperature of 21-23° C. on a 12-hour light; 12-hour dark cycle, and were allowed free access to standard rat chow and tap water. Groups of ten rats were used for each test.
The response of the rats to a noxious thermal stimulus was measured using a modified tail flick test, the details of which have previously been described (Gelgor et al., 1992). The rat's tail was submerged in a water bath controlled at 49° C., and the time to the first coordinated motor response of the tail measured, with a safety cut-off at 30 s. Tail skin temperature was maintained at 29° C. by placing all but the proximal 20 mm of the rat's tail in a temperature-controlled bath, before and between measurements, to obviate the potential confounding effects of changes in tail temperature on tail flick latency (Tjolsen et al., 1989).
The hyperalgesia which occurs during reperfusion of the tail following transient ischaemia, that is following the release of the tourniquet mentioned above, was measured by comparing the tail flick latency during reperfusion with that measured in the same animal before application of the tourniquet. Hyperalgesia is manifest as a reduced tail flick latency during reperfusion, and lasts about one hour (Gelgor et al., 1992).
as §1
Codeine phosphate was dissolved in water. Meloxicam was dissolved in sunflower oil. Paracetamol was suspended in sunflower oil. All three agents were administered in boluses of 0.2 ml, and the paracetamol suspension was flushed with water. In control experiments, the appropriate vehicle (water, sunflower oil, or both) was administered.
Each agent was administered separately, at three doses, to determine the antinociceptve activity, if any, of each independently. Pairs of agents then were administered at three doses for each pair. Finally, the combination of the three agents was administered, at three doses. In all cases, the ratio of the agents was fixed at 1 meloxicam: 4 codeine: 266 paracetamol.
Antihyperalgesia is measured by the extent to which an agent reverses the hyperalgesia induced by conditioning event, which, in the test case, was transient ischaemia. An antihyperalgesic index of zero means complete lack of antihyperalgesic activity, an index of 100% means full reversal of the hyperalgesia, and an index of more than 100% implies some analgesic activity added to the antihyperalgesic activity.

[3] = oral, single agent, least-squares regression, n=9 or 10, immediately after release of tourniquet

Row | SMILES | Escape latency (min), Agent ([1]; meloxicam 5 mg/kg oral 30 min earlier) | ED50 [2, 3] [mg/kg] | Escape latency (min), Agent ([1]; paracetamol 266 mg/kg oral 30 min earlier) | Antihyperalgesic activity of each agent administered separately, in words ([2]; oral, three doses each (FIG. 2), paracetamol limited to 266 mg/kg) | Antihyperalgesic activity of the agent on its own at its dose in the ED50 of the triple combination, in words ([2]; rat, in vivo) | Escape latency (min), Agent ([1]; codeine 20 mg/kg oral 30 min earlier) | ED50 ([2]; po) [mg/kg]
1 | Cc1cnc(NC(=O)C2=C(O)c3ccccc3S(=O)(=O)N2C)s1 [Meloxicam, meloxicam] | 25.3 (15.7-30.0) min | 2.6 | – | – | – | – | –
2 | CC(=O)Nc1ccc(O)cc1 [Paracetamol, paracetamol] | – | > 266 | 18.2 (9.2-30.0) min | did not exhibit any antihyperalgesic activity | no antihyperalgesic activity | – | –
3 | COc1ccc2c3c1O[C@H]1[C@@H](O)C=C[C@H]4[C@@H](C2)N(C)CC[C@@]341 [Codeine, codeine phosphate] | – | – | – | – | – | 20.9 (11.9-30.0) min | 2.4
